The conditions of data set [1]: in vivo; cited from earlier work.
Another data set concerns Human blood samples. The data set can be described thus: In vitro MR imaging of contrast agent doped human blood samples, viable vs freeze-injured cells (Example 2). The note with it: all sequences. Type of data set: cell-based. The protocol: Human blood samples with different hematocrit readings (Ht) of 27%, 45% and 69% were prepared to provide sample models for different levels of compartmentalization between intracellular and extracellular fluids. To initiate cellular level injury, samples with these Ht readings were frozen to effect cell membrane destruction. Finally a control sample of cell free plasma was also used.
To the test samples were added (a) a positive ECF contrast agent (GdDTPA-BMA at a dosage corresponding to 0.2 mmol Gd/kg); (b) a negative ECF contrast agent (DyDTPA-BMA at a dosage corresponding to 0.6 mmol Dy/kg); and (c) a positive ECF contrast agent and a negative ECF contrast agent (GdDTPA-BMA and DyDTPA-BMA at dosages corresponding to 0.2 mmol Gd/kg and 0.6 mmol Dy/kg).
These doped samples, and controls to which no contrast agent was added, were imaged together at ambient temperature in the head coil of a Siemens Magnetom operating at 0.5 T using T1 -weighted (TR/TE 500/30 ms), T2 -weighted (TR/TE 1500/90 ms) and proton density-weighted (TR/TE 1500/30 ms) echo sequences. The signal intensity for each contrast agent doped sample was normalized to the corresponding undoped sample and the results are set forth as ratios in FIGS. 1 to 3 hereto, squares, circles and diamonds representing the ratios for T1 -weighted, PD-weighted and T2 -weighted sequences respectively.

Data set [2] relates to infarcted and nonischemic myocardium. As to the kind of experiment: Ex vivo MR imaging of pig hearts, myocardial infarction model (Example 4). Type of data set: in vivo. Particulars: Dy DTPA-BMA 1.0 mmol/kg plus Gd DTPA-BMA 0.3 mmol/kg. As to the method:
A control group received no contrast agent.
Following sacrifice, the hearts were extirpated and rinsed in isotonic saline to remove remaining blood. The hearts were examined ex vivo at ambient temperature in the MR equipment and then cut into thin transverse slices and soaked for about 20 minutes in a 1% aqueous solution of triphenyltetrazolium chloride (TTC) at 37° C. The slices were then visually inspected for unstained areas corresponding to infarction.
MR examination was performed in a superconductive whole body equipment (Siemens Magnetom) operating at 0.5 T. The hearts were investigated with saggital and transverse multi-slice spin-echo images with TR/TE of 500/30 (two excitations), 1500/30,70 and 1500/30,120 (single excitations) using a saddle-shaped coil with a diameter of 13 cm. The following parameters were used: Slice thickness 7 mm. Interslice gap 20%. Acquisition matrix 256×256 giving a resolution of 0.7×0.7 mm.
In the transverse images regions of interest (ROI's) were placed in infarcted and nonischemic myocardium, in a corn oil phantom and in front of the heart (noise). The mean signal intensity (SI) was measured in each ROI.
In addition, the SD was measured in the noise. […]

Data set [3] relates to infarcted and non-ischemic myocardium. As to the kind of experiment: MR imaging of excised pig hearts, double contrast (Example 5). The format is in vivo. The protocol:
The total occlusion time was thus 6 hours.
Following sacrifice, the hearts were extirpated and rinsed in isotonic saline to remove remaining blood. The hearts were examined ex vivo at ambient temperature in the MR equipment and then cut into approximately 8 mm thick transverse slices and soaked for 10-20 minutes in a 1% aqueous solution of triphenyltetrazolium chloride (TTC) at 37° C. TTC stains non-ischemic myocardium brick red. The slices were inspected visually for unstained areas of infarction.
MR images were obtained in an identical manner to that described in Example 4.
In the transverse images, three ROI's were placed in infarcted myocardium. Four ROI's were placed in non-ischemic myocardium, two in the anterior wall and two in the posterior wall of the left ventricle. The mean signal intensity (S) was measured in each ROI. One ROI was placed anterior to the heart in an area free from visible artefacts, in order to measure the standard deviation (SD) of the background signal. These measurements were used to calculate the contrast (C) and contrast-to-noise (C/N) ratios between infarcted (inf) and non-ischemic (nonisch) myocardium using the formulae defined in Example 4.
In each heart, non-ischemic myocardium and infarction were represented by a mean value from measurements in two slices.

For data set [4], the system named is normal and reperfused infarcted myocardium. As to the kind of experiment: MR imaging and T2/T2* relaxation of rat hearts after single agents, protocol 2 (Example 6). Type of data set: in vivo, Sprague Dawley rats. The source says:
Images were acquired at room temprature using a GE CSI 2.0 T system. Each heart was positioned with its long axis parallel to the main magnetic field such that axial images would present short axis views of the heart. All images were obtained using a slice thickness of 2 mm, FOV of 30 mm, and a raw data matrix of 128×256 interpolated to 256×256 during reconstruction. TR/TE settings used for spin echo images are indicated below. Gradient echo images were obtained using a TR of 600 ms, with the radio frequency pulse power set very low such that no signal saturation was evident following multiple pulses and images would contain no T1 weighting.
Group 3 (n=11) received 1.0 mmol/kg DyDTPA-BMA, group 4 (n=7) received 0.2 mmol/kg of GdDTPA-BMA and group 5 (n=7) received no contrast agents. The imaging protocol for each heart consisted of spin echo T1-weighted (TR/TE=300/20 ms, NEX=4) and T2-weighted (TR/TE=4000/80 ms; NEX=2), a set of four-echo T2-weighted images (TR=4000 ms, TE=20, 40, 60 and 80 ms, NEX=2) for estimation of regional T2 values, and a set of gradient-recalled images (TE=10, 15, 20 and 30 ms, NEX=4) for estimation of region T2* values. TTC staining of the heart was performed to verify the presence of infarction.
Signal intensities were measured from ROIs selected over infarcted and uninfarcted myocardium. The same ROIs were applied to all images obained from each heart.
A series of gradient recalled and spin echo MR images were obtained to resolve the effects of GdDTPA-BMA on T2-weighted images and DyDTPA-BMA on T1-weighted images and also to more thoroughly characterize the differences in contrast media-induced T2 and T2* enhancement between infarcted and normal myocardium. Table III summarises the observed alterations in regional signal intensity and relaxation rates following administration of either GdDTPA-BMA or DyDTPA-BMA.

Data set [5] has as its system infarcted and non-ischemic myocardium. The note with it: pig, in vivo.
Procedure: (§1) Myocardial infarction was induced in 5 anaesthetized pigs of either sex (weight 25-30 kg) by ligating a diagonal branch of the left anterior descending artery (LAD), at thoracotomy. Microdialysate probes were inserted in ischemic and non-ischemic myocardium. The pigs were sacrificed 2 hours after administration of contrast media. 4 hour post occlusion Gd-DTPA-BMA (0.3 mmol/kg) and Dy-DTPA-BMA (1.0 mmol/kg) were simultaneously administered in vivo with an injection time of one minute. The total occlusion time was thus 6 hours.
(§2) The microdialysate was collected every 10 minutes and measured for gadolinium and dysprosium using inductively coupled plasma atomic emission spectrometry (ICP-AES). The microdialysis equipment consisted of a CMA®/20 microdialysis probe with a 10 mm flexible membrane and a diameter of 0.5 mm (CMA AB, Stockholm, Sweden). […] The probe was perfused with a Krebs-Ringer phosphate buffer (pH 7.4) at a speed of 2 μl/min and a dead space, in the system, of 10 μl. […] One probe was inserted into the central part of the ischemic area and another probe was placed in non-ischemic myocardium in the lateral wall using the Seldinger technique to minimize mechanical injury to myocardium and probe membrane. A CMA® microdialysis pump (CMA 100) was used with two syringes to perfuse the probes.
(§3) In addition, gadolinium and dysprosium were determined in dialysates from five pigs by ICP-AES. Twenty μl portions were sampled in plastic tubes and kept frozen until analysis. The samples were diluted to 5.02 ml with ultra-pure water. To enhance the sensitivity of measurements, an ultrasonic nebulizer was used instead of the pneumatic one. The limit of detection for the method is about 2 μg/l for both gadolinium and dysprosium in the measuring solution. This means that about 3 μmol/l can be detected in the dialysates.
Data set [6] relates to normal and infarcted myocardium. Particulars: rat, in vivo.
Procedure: Thirty seven Sprague Dawley rats (200-400 gm) were anaesthetized by an intraperitoneal injection of sodium pentobarbital (50 mg/kg body weight). After tracheostomy, animals were ventilated using a small animal respirator. The heart was exposed following a left thoracotomy through the 4th intercostal space and a surgical suture was used to ligate the anterior branch of the left coronary artery near its origin beneath the left atrial appendage using a snare ligature. The presence of occlusion was visually confirmed by noting the development of myocardial cyanosis. After 1 hour occlusion, reperfusion was initiated by loosening the snare ligature. A catheter was placed into a femoral vein to inject contrast media. All animals which received contrast agent were administered doses at 45 minutes of reflow. After 1 hour reperfusion, each heart was excised and rinsed in 0.9% saline, patted dry with gauze, and a cotton swab was inserted into the left ventricular cavity to expand the chamber. Each heart was wrapped in clear plastic wrap to minimise dehydration during imaging.
To group 1 rats (n=9) were administered 0.2 mmol/kg of GdDTPA-BMA immediately followed by 1.0 mmol/kg of DyDTPA-BMA. Group 2 (n=7) received no contrast agents. Two spin-echo images were obtained from the midventricle of each heart, a T1-weighted image with TR/TE=300/20 and NEX=4, and T2-weighted image with TR/TE=3000/60 and NEX=2. After imaging, each heart was sliced at the midventricular level and soaked in a 2% solution of TTC at 37° C. for 15 minutes to define myocardial infarction.
Samples of normal and infarcted myocardium were retained for analysis of Gd and Dy content by means of ICP-MS.
Data set [7] relates to infarcted and nonischemic myocardium. The note with it: cited from earlier work.
A further data set concerns myocardial infarction. The note with it: first positive, second negative agent, sequential; cited from earlier work.
In data set [8] the test system is infarcted and non-ischemic myocardium. The data set can be described thus: Microdialysis kinetics of Gd and Dy in extracellular space of pig myocardium (Example 5).
Procedure: as §1, §2, §3
[9] abbreviates: four-echo T2-weighted, TR=4000 ms.
Where [10] appears, read: gradient recalled echo images, Dy 1.0 mmol/kg n=11 or Gd 0.2 mmol/kg n=7.
The mark [11] stands for this setting: gradient-recalled images, TE=10, 15, 20 and 30 ms.
[12] abbreviates: spin echo T1 weighted, TR/TE=300/20 ms.
Where [13] appears, read: spin echo T2 weighted, TR/TE=4000/80 ms.

“Also recorded” adds a separate entry of the source.

As to `CNC[C@H](O)[C@@H](O)[C@H](O)[C@H](O)CO.CNC[C@H](O)[C@@H](O)[C@H](O)[C@H](O)CO.O=C([O-])CN(CCN(CC(=O)[O-])CC(=O)O)CCN(CC(=O)[O-])CC(=O)O.[Gd+3]` [Gd DTPA-dimeglumine], in [1], the “distribution after intravenous administration” value is listed as “rapidly distributes throughout the extracellular fluid (ECF)”.
In the case of `CNC(=O)CN(CCN(CCN(CC(=O)[O-])CC(=O)NC)CC(=O)[O-])CC(=O)[O-].[Dy+3]` [DyDTPA-BMA], the “signal intensity, "viable" sample” value with Human blood samples (most markedly T2-weighted) is reported as “signal intensity fell with increasing Ht reading”. Besides, the “signal intensity, "non-viable" samples” value in the data set with Human blood samples (frozen samples) is “no effect”. Also, the “effect of negative agent on T1 enhancing effect of positive agent in infarcted area” value in data set [2] was “does not cancel the T1 enhancing effect of the positive agent in the infarcted area”. The “counteraction of Gd-DTPA-BMA induced signal enhancement by Dy-DTPA-BMA” value in [3] (all investigated sequences, infarcted tissue) is on record as “not significantly counteracted; also recorded: did not counteract the Gd-DTPA-BMA induced enhancement of the infarcted tissue”. Further, the “susceptibility induced (Dy induced) signal intensity reduction in infarctions” value in data set [3] (infarctions) is reported as “lack of detectable susceptibility induced (i.e. Dy induced) signal intensity reduction effects in the infarctions”. Also, the “differential enhancement of reperfused infarction, T1-weighted” value in data set [4] (T1-weighted images) is “significant differential enhancement”. For the same compound, in data set [4] (T2-weighted images), the “contrast between infarcted and normal region vs both agents” value is on record as “greater contrast between the two regions than was noted when both agents were administered”; the “delineation of infarcted region, T2-weighted” value was “delineated by both agents”; the “signal intensity of infarcted region, T2-weighted” value is on record as “much less reduction in signal of the infarcted region”; the “signal intensity of normal region, T2-weighted” value is “great suppression of normal myocardium signal”. Further, in [4] (setting [9]), the “T2, infarct” value stood at 35.8 ± 1.0 ms and the “T2, normal myocardium” value came to 25.9 ± 0.6 ms. In addition, in data set [4] (setting [10]), the “GRE signal intensity, infarct” value came out at 191 ± 34 and the “GRE signal intensity, normal myocardium” value stood at 105 ± 18. Also, in data set [4] (setting [11]), the “T2*, infarct” value is 17.7 ± 1.2 ms and the “T2*, normal myocardium” value stood at 9.4 ± 0.5 ms. Further, in data set [4] (setting [12]), the “SE T1 signal intensity, infarct” value is 141 ± 14 and the “SE T1 signal intensity, normal myocardium” value worked out at 88 ± 7. Besides, in [4] (setting [13]), the “SE T2 signal intensity, infarct” value worked out at 42 ± 4 and the “SE T2 signal intensity, normal myocardium” value turned out to be 12 ± 1. In data set [5], the “time to plateau concentration in dialysate” value fell in the range of 20 to 30 min. Also, the “time of early peak in dialysate” value in data set [5] (iv) was not above 10 min. For the same compound, the “metal content in infarcted region vs normal myocardium” value in data set [6] is listed as “greater amount of dysprosium in the infarcted zone”. In [6] (15 min), the “concentration ratio, reperfused infarcted vs normal myocardium” value is given as “approximately 2.5 fold”. Further, in data set [7] (T1- and T2-weighted sequences), the “infarct detection / conspicuity” value is reported as “improves the infarct detection due to susceptibility-induced loss of signal intensity in nonischemic myocardium”. Moreover, in data set [7] (infarcted myocardium), the “signal effect of accumulation in infarcted myocardium” value is “does not seem to result in signal loss but maintains a persistent intensity relative to the depleted signal in normal myocardium”. The “distribution in infarcted heart” value in the data set with myocardial infarction is “allowed essentially only to distribute to the normal tissue resulting in the generation of enhanced contrast between normal and infarcted tissue”. In addition, in data set [8] (infarcted myocardium), the “concentration course in dialysate” value is listed as “increased gradually” and the “duration of plateau in dialysate” value came out at 60 min. Further, the “concentration in dialysate after early peak” value in data set [8] (non-ischemic myocardium) is reported as “diminished with time”.
As for `O=C([O-])CN(CCN(CC(=O)[O-])CC(=O)O)CCN(CC(=O)[O-])CC(=O)O.[Gd+3]` [Gd-DTPA, reference compound], the “distribution / enhancement in 6-hour-old myocardial infarction” value in data set [7] (porcine model) was “infarct accumulation”.
